Laboratory results from patent US10173982B2, “Picolinamides as fungicides” (Dow AgroSciences LLC, priority 2016, dated 2019).
Read-outs that look alike come from different tables or passages of the source.

What was measured:
Type in all cases: in vivo
[1] = test system: Zymoseptoria tritici; test: Fungicidal activity: leaf blotch of wheat (SEPTTR), percent disease control on wheat seedlings; conditions: Zymoseptoria tritici, LV (low volume) activity at 121.5 g/H
Protocol: Technical grades of materials were dissolved in acetone, which were then mixed with nine volumes of water containing 110 ppm Triton X-100. The fungicide solutions were applied onto wheat seedlings using an automated booth sprayer to run-off. All sprayed plants were allowed to air dry prior to further handling. All fungicides were evaluated using the aforementioned method for their activity vs. all target diseases, unless stated otherwise. Wheat leaf blotch and brown rust activity were also evaluated using track spray applications, in which case the fungicides were formulated as EC formulations, containing 0.1% Trycol 5941 in the spray solutions. Wheat plants (variety Yuma) were grown from seed in a greenhouse in 50% mineral soil/50% soil-less Metro mix until the first leaf was fully emerged, with 7-10 seedlings per pot. These plants were inoculated with an aqueous spore suspension of Zymoseptoria tritici either prior to or after fungicide treatments. After inoculation the plants were kept in 100% relative humidity (one day in a dark dew chamber followed by two to three days in a lighted dew chamber at 20° C.) to permit spores to germinate and infect the leaf. The plants were then transferred to a greenhouse set at 20° C. for disease to develop. When disease symptoms were fully expressed on the 1st leaves of untreated plants, infection levels were assessed on a scale of 0 to 100 percent disease severity. Percent disease control was calculated using the ratio of disease severity on treated plants relative to untreated plants.

[2] = test system: Puccinia triticina; test: Fungicidal activity: wheat brown rust (PUCCRT), percent disease control on wheat seedlings; conditions: Puccinia triticina, LV (low volume) activity at 121.5 g/H
Protocol: Technical grades of materials were dissolved in acetone, which were then mixed with nine volumes of water containing 110 ppm Triton X-100. The fungicide solutions were applied onto wheat seedlings using an automated booth sprayer to run-off. All sprayed plants were allowed to air dry prior to further handling. All fungicides were evaluated using the aforementioned method for their activity vs. all target diseases, unless stated otherwise. Wheat leaf blotch and brown rust activity were also evaluated using track spray applications, in which case the fungicides were formulated as EC formulations, containing 0.1% Trycol 5941 in the spray solutions. Wheat plants (variety Yuma) were grown from seed in a greenhouse in 50% mineral soil/50% soil-less Metro mix until the first leaf was fully emerged, with 7-10 seedlings per pot. These plants were inoculated with an aqueous spore suspension of Puccinia triticina either prior to or after fungicide treatments. After inoculation the plants were kept in a dark dew room at 22° C. with 100% relative humidity overnight to permit spores to germinate and infect the leaf. The plants were then transferred to a greenhouse set at 24° C. for disease to develop. Fungicide formulation, application and disease assessment followed the procedures as described in the Example A. Results of the evaluations are shown below in Table 4.

[3] = test system: Phakopsora pachyrhizi; test: Fungicidal activity: Asian soybean rust (PHAKPA), disease control on soybean seedlings; conditions: High volume at 25 ppm
Protocol: Technical grades of materials were dissolved in acetone, which were then mixed with nine volumes of water containing 0.011% Tween 20. The fungicide solutions were applied onto soybean seedlings using an automated booth sprayer to run-off. All sprayed plants were allowed to air dry prior to further handling.
Soybean plants (variety Williams 82) were grown in soil-less Metro mix, with one plant per pot. Two weeks old seedlings were used for testing. Plants were inoculated either 3 days prior to or 1 day after fungicide treatments. Plants were incubated for 24 h in a dark dew room at 22° C. and 100% relative humidity then transferred to a growth room at 23° C. for disease to develop. Disease severity was assessed on the sprayed leaves.

[4] = 24 h, 1 Day Protectant, read-out: SEPTTR 1DP disease control rating
[5] = 72 h, 3 Day Curative, read-out: SEPTTR 3DC disease control rating
[6] = 24 h, 1 Day Protectant, read-out: PUCCRT 1DP disease control rating
[7] = 72 h, 3 Day Curative, read-out: PUCCRT 3DC disease control rating
[8] = 24 h, 1 Day Protectant, read-out: PHAKPA 1DP disease control rating
[9] = 72 h, 3 Day Curative, read-out: PHAKPA 3DC disease control rating

| Compound | pest or weed control at 121.5 g/ha [1, 4] | pest or weed control at 121.5 g/ha [1, 5] | pest or weed control at 121.5 g/ha [2, 6] | pest or weed control at 121.5 g/ha [2, 7] | pest or weed control at 25 ppm [3, 8] | pest or weed control at 25 ppm [3, 9] |
| --- | --- | --- | --- | --- | --- | --- |
| COc1ccnc(C(=O)N[C@@H](C)C(=O)O[C@@H](C)[C@H](Sc2ccccc2)c2ccccc2)c1OCOC(=O)C(C)C [Compound 79] | > 80% | > 80% | > 80% | ≤ 80% | ≤ 80% | ≤ 80% |
| COc1cc(F)ccc1[C@@H](Sc1ccccc1)[C@H](C)OC(=O)[C@H](C)NC(=O)c1nccc(OC)c1OC(C)=O [Compound 84] | > 80% | ≤ 0% | ≤ 80% | ≤ 80% | ≤ 80% | ≤ 0% |
| COc1ccnc(C(=O)N[C@@H](C)C(=O)O[C@@H](C)[C@H](SCc2ccccc2)c2ccccc2)c1OC(C)=O [Compound 68] | > 80% | ≤ 80% | > 80% | > 80% | > 80% | ≤ 80% |
| COc1ccnc(C(=O)N[C@@H](C)C(=O)O[C@@H](C)[C@H](SC(C)C)c2ccccc2)c1OC(C)=O [Compound 70] | ≤ 80% | > 80% | > 80% | ≤ 80% | > 80% | ≤ 80% |
| COc1ccnc(C(=O)N[C@@H](C)C(=O)O[C@@H](C)[C@H](Sc2ccccc2)c2ccc(F)cc2C)c1OC(C)=O [Compound 78] | > 80% | > 80% | ≤ 80% | ≤ 0% | ≤ 80% | ≤ 0% |
| COc1ccnc(C(=O)N[C@@H](C)C(=O)O[C@@H](C)[C@H](Sc2ccccc2)c2ccccc2)c1OC(C)=O [Compound 82] | ≤ 80% | ≤ 80% | > 80% | ≤ 80% | ≤ 80% | ≤ 80% |
| COc1ccnc(C(=S)N[C@@H](C)C(=O)O[C@@H](C)[C@H](Sc2ccccc2)c2ccc(F)cc2)c1OC(C)=O [Compound 85] | ≤ 80% | ≤ 0% | ≤ 80% | ≤ 0% | ≤ 80% | ≤ 0% |
| COc1ccnc(C(=O)N[C@@H](C)C(=O)O[C@@H](C)[C@H](Sc2ccc(C(F)(F)F)cn2)c2ccccc2)c1OC(C)=O [Compound 71] | ≤ 80% | ≤ 80% | ≤ 0% | ≤ 80% | ≤ 80% | ≤ 80% |
| COc1ccnc(C(=O)N[C@@H](C)C(=O)O[C@@H](C)[C@H](Sc2ccc(F)cc2C)c2ccc(F)cc2C)c1OC(C)=O [Compound 76] | > 80% | > 80% | ≤ 80% | ≤ 0% | ≤ 80% | ≤ 80% |
| COc1ccnc(C(=O)N[C@@H](C)C(=O)O[C@@H](C)[C@H](SCC(C)C)c2ccccc2)c1OC(C)=O [Compound 69] | ≤ 80% | ≤ 0% | > 80% | ≤ 80% | > 80% | ≤ 80% |
| COc1ccnc(C(=O)N[C@@H](C)C(=O)O[C@@H](C)[C@@H](c2ccccc2)[S+]([O-])c2ccc(F)cc2)c1OC(C)=O (stereo partly shown) [Compound 62] | ≤ 80% | ≤ 80% | ≤ 0% | ≤ 0% | ≤ 0% | ≤ 0% |
| COc1ccnc(C(=O)N[C@@H](C)C(=O)O[C@@H](C)[C@H](Sc2cccc(Cl)c2)c2ccccc2)c1OC(C)=O [Compound 65] | > 80% | ≤ 0% | > 80% | ≤ 80% | ≤ 80% | ≤ 80% |
| COc1ccnc(C(=O)N[C@@H](C)C(=O)O[C@@H](C)[C@H](Sc2ccccc2)c2ccc(C)cc2)c1OC(C)=O [Compound 77] | > 80% | ≤ 80% | > 80% | ≤ 80% | ≤ 80% | ≤ 80% |
| COc1ccnc(C(=O)N[C@@H](C)C(=O)O[C@@H](C)[C@H](Sc2ccc(C)cc2)c2ccccc2)c1OC(C)=O [Compound 66] | > 80% | ≤ 80% | ≤ 80% | ≤ 80% | ≤ 80% | ≤ 80% |
| COc1ccnc(C(=O)N[C@@H](C)C(=O)O[C@@H](C)[C@H](Sc2ccccc2)c2ccccc2)c1OCOC(C)=O [Compound 80] | ≤ 80% | ≤ 80% | > 80% | ≤ 80% | ≤ 80% | ≤ 80% |
| COc1ccnc(C(=O)N[C@@H](C)C(=O)O[C@@H](C)[C@H](Sc2ccccc2)c2ccccc2)c1OC(=O)C(C)C [Compound 81] | ≤ 80% | ≤ 80% | ≤ 80% | ≤ 80% | ≤ 80% | ≤ 80% |
| COc1ccnc(C(=O)N[C@@H](C)C(=O)O[C@@H](C)[C@@H](c2ccccc2)S(=O)(=O)c2ccc(F)cc2)c1OC(C)=O [Compound 64] | ≤ 80% | ≤ 80% | ≤ 80% | ≤ 0% | ≤ 0% | ≤ 80% |
| COc1ccnc(C(=O)N[C@@H](C)C(=O)O[C@@H](C)[C@H](Sc2ccc(C)cc2C)c2ccccc2)c1OC(C)=O [Compound 67] | > 80% | > 80% | > 80% | ≤ 80% | ≤ 80% | ≤ 0% |
| COc1ccnc(C(=S)N[C@@H](C)C(=O)O[C@@H](C)[C@H](Sc2ccc(F)cc2C)c2ccccc2)c1OC(C)=O [Compound 83] | ≤ 80% | ≤ 0% | ≤ 80% | ≤ 0% | – | – |
